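These data come from cells grown in 96-well plates and exposed to compound for 48 hours at five concentrations. GI50: concentration for 50% inhibition of growth.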 The source made the active and inactive calls. No stated cut-off is given here; in the data, active = GI50 up to about 1.1 µM and inactive = higher.
Tests used:
Test in all cases: NCI-60 cell line screen, 48 h
[1] = test system: CCRF-CEM
[2] = test system: SK-OV-3
[3] = test system: U-251
[4] = test system: HOP-62
[5] = test system: HCT-15
[6] = test system: NCI-H460
[7] = test system: M14
[8] = test system: DLD-1
[9] = test system: XF498
[10] = test system: UACC-257
[11] = test system: OVCAR-4
[12] = test system: HCC 2998
[13] = test system: HOP-92
[14] = test system: DMS-273
[15] = test system: SK-MEL-2
[16] = test system: NCI-H226
[17] = test system: OVCAR-8
[18] = test system: A549
[19] = test system: 786-0
[20] = test system: SK-MEL-28
[21] = test system: OVCAR-3
[22] = test system: RPMI-8226
[23] = test system: UACC-62
[24] = test system: HCT-116
[25] = test system: SF-539
[26] = test system: DMS-114
[27] = test system: CAKI-1
[28] = test system: SK-MEL-5
[29] = test system: NCI-H522
[30] = test system: OVCAR-5
[31] = test system: UO-31
[32] = test system: RXF 631
[33] = test system: SW-620
[34] = test system: MOLT-4
[35] = test system: K562
[36] = test system: COLO 205
[37] = test system: Malme-3M
[38] = test system: HL-60
[39] = test system: NCI-H23
[40] = test system: LXFL 529
[41] = test system: A498
[42] = test system: HT-29
[43] = test system: KM-20L2
[44] = test system: SNB-19
[45] = test system: M19-MEL
[46] = test system: KM12
[47] = test system: TK-10
[48] = test system: SNB-75
[49] = test system: SF-295
[50] = test system: EKVX
[51] = test system: ACHN
[52] = test system: SF-268
[53] = test system: IGROV-1

SMILES: O=C1C(=Cc2ccc(F)cc2)C(=O)c2ccccc21
- GI50 [1]: 41.2 µM (inactive)
- GI50 [2]: > 100 µM (inactive)
- GI50 [3]: > 100 µM (inactive)
- GI50 [4]: > 100 µM (inactive)
- GI50 [5]: > 100 µM
- GI50 [6]: > 100 µM (inactive)
- GI50 [7]: > 100 µM (inactive)
- GI50 [8]: > 100 µM (inactive)
- GI50 [9]: > 100 µM (inactive)
- GI50 [10]: > 100 µM (inactive)
- GI50 [11]: > 100 µM (inactive)
- GI50 [12]: > 100 µM (inactive)
- GI50 [13]: 925 nM (active)
- GI50 [14]: > 100 µM (inactive)
- GI50 [15]: > 100 µM (inactive)
- GI50 [16]: > 100 µM (inactive)
- GI50 [17]: > 100 µM (inactive)
- GI50 [18]: > 100 µM (inactive)
- GI50 [19]: > 100 µM (inactive)
- GI50 [20]: > 100 µM (inactive)
- GI50 [21]: > 100 µM (inactive)
- GI50 [22]: 49.8 µM (inactive)
- GI50 [23]: > 100 µM (inactive)
- GI50 [24]: > 100 µM (inactive)
- GI50 [25]: > 100 µM (inactive)
- GI50 [26]: > 100 µM (inactive)
- GI50 [27]: > 100 µM (inactive)
- GI50 [28]: > 100 µM (inactive)
- GI50 [29]: > 100 µM (inactive)
- GI50 [30]: > 100 µM (inactive)
- GI50 [31]: > 100 µM (inactive)
- GI50 [32]: > 100 µM (inactive)
- GI50 [33]: > 100 µM (inactive)
- GI50 [34]: 42 µM (inactive)
- GI50 [35]: > 100 µM (inactive)
- GI50 [36]: > 100 µM (inactive)
- GI50 [37]: > 100 µM (inactive)
- GI50 [38]: 30.5 µM (inactive)
- GI50 [39]: > 100 µM (inactive)
- GI50 [40]: > 100 µM (inactive)
- GI50 [41]: > 100 µM (inactive)
- GI50 [42]: > 100 µM (inactive)
- GI50 [43]: > 100 µM (inactive)
- GI50 [44]: > 100 µM (inactive)
- GI50 [45]: 96.2 µM (inactive)
- GI50 [46]: > 100 µM (inactive)
- GI50 [47]: > 100 µM (inactive)
- GI50 [48]: 24.9 µM (inactive)
- GI50 [49]: > 100 µM (inactive)
- GI50 [50]: > 100 µM (inactive)
- GI50 [51]: > 100 µM (inactive)
- GI50 [52]: > 100 µM (inactive)
- GI50 [53]: > 100 µM (inactive)

Reference: ChEMBL document CHEMBL1201862, “PubChem BioAssay data set” (2004)
